Here are results for 35 molecules from patent publication US20180179198A1, “TRICYCLIC MODULATORS OF TNF SIGNALING” (AbbVie Inc., priority 2015, published 2018).

The test has as its target TNFα trimer (Homo sapiens, UniProt P01375). Description: TNFα FP Competitive Binding Assay. The following applies: fluorescence polarization competition; 20 nM TNFα trimer, 1 nM OregonGreen488 probe; read-out: TNF IC50 (TNFα FP binding assay IC50). An outline of the steps:
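Compounds, 12-point 1:3 dilutions topping at 100 μM (2.0% DMSO) or 338 μM (3.4% DMSO) final, compete with 1 nM fluorescent probe for 20 nM TNFα trimer in HEPES/NaCl/EDTA/Triton buffer. After 18-24 h incubation at 37 °C plus 1 h rt equilibration, background-subtracted polarization is read and fitted with variable slope.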
For orientation: In fluorescence polarisation assays a small probe gives low polarisation when free and higher when bound to something large.

pIC50: −log10 of the molar value. Where only a bound is given, the exact number is not on record here.

TNFα trimer, sequence (P01375 77-233 limits assumed): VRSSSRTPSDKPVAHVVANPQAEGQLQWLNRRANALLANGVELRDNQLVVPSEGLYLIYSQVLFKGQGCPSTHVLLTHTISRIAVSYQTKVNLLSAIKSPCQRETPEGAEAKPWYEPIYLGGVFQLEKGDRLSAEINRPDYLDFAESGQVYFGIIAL

As to `c1ccc([C@H]2CCc3nc4ccc(-c5cnc(N6CCOCC6)nc5)cc4n32)cc1` [D.3], the negative-log IC50 (pIC50) (commonly −log10 of the IC50, conventionally taken in molar units) is more than 6.00.
On to `c1ccc(C2CCOc3nc4ccc(-c5cnc(N6CCOCC6)nc5)cn4c32)cc1` (centres unmarked) [D.4], for which the pIC50 is 5.00 to 6.00.
As for `COc1ccccc1C1CCOc2nc3ccc(-c4cnc(N5CCOCC5)nc4)cn3c21` (centres unmarked) [D.5], the pIC50 was more than 6.00.
Turning to `CC(C)(O)c1ncc(-c2ccc3nc4n(c3c2)C(c2ccccc2)CCC4)cn1` (centres unmarked) [E.1, 2-(5-(1-Phenyl-1,2,3,4-tetrahydrobenzo[4,5]imidazo[1,2-a]pyridin-8-yl)pyrimidin-2-yl)propan-2-ol], the negative logarithm of the IC50 (pIC50) is more than 6.00.
On to `CC(C)(O)c1ncc(-c2ccc3nc4n(c3c2)C(c2ccccc2O)CCC4)cn1` (centres unmarked) [E.2], for which the pIC50 is 4.00 to 5.00.
Consider `COc1ccccc1C1CCc2nc3ccc(-c4cnc(C(C)(C)O)nc4)cc3n21` (centres unmarked) [E.3], for which the negative logarithm of the IC50 (pIC50) was more than 6.00.
Regarding `CC(C)(O)c1ncc(-c2ccc3nc4n(c3n2)C2(COC4)COc3ccccc32)cn1` (centres unmarked) [E.4, 2-(5-(6′,8′-Dihydro-2H-spiro[benzofuran-3,9′-pyrido[3′,2′:4,5]imidazo[2,1-c][1,4]oxazin]-2′-yl)pyrimidin-2-yl)propan-2-ol], the pIC50 was more than 6.00.
On to `CC(C)(O)c1ncc(-c2ccc3nc4n(c3n2)C2(CCOc3ccccc32)COC4)cn1` (centres unmarked) [E.5, 2-(5-(6′,8′-Dihydrospiro[chroman-4,9′-pyrido[3′,2′:4,5]imidazo[2,1-c][1,4]oxazin]-2′-yl)pyrimidin-2-yl)propan-2-ol], for which the negative-log IC50 (pIC50) is 5.00 to 6.00.
Next, `CC(C)(O)c1ncc(-c2ccc3nc4n(c3c2)C(c2ccccc2)CC4)cn1` (centres unmarked) [Example 1, 2-(5-(1-Phenyl-2,3-dihydro-1H-benzo[d]pyrrolo[1,2-a]imidazol-7-yl)pyrimidin-2-yl)propan-2-ol]: more than 6.00; `CC(C)(O)c1ncc(-c2ccc3nc4n(c3c2)[C@@H](c2ccccc2)CC4)cn1` [Example 2, (R)-2-(5-(1-Phenyl-2,3-dihydro-1H-benzo[d]pyrrolo[1,2-a]imidazol-7-yl)pyrimidin-2-yl)propan-2-ol]: more than 6.00; `O=C1NCC2CN(c3ncc(-c4ccc5nc6n(c5c4)[C@@H](c4ccccc4)CC6)cn3)CCN12` (stereo partly drawn) [Example 3, 7-(5-((R)-1-Phenyl-2,3-dihydro-1H-benzo[d]pyrrolo[1,2-a]imidazol-7-yl)pyrimidin-2-yl)hexahydroimidazo[1,5-a]pyrazin-3(2H)-one]: more than 6.00.
With `OC1CCN(c2ncc(-c3ccc4nc5n(c4c3)[C@@H](c3ccccc3)COC5)cn2)CC1` [Example 4, (S)-1-(5-(4-Phenyl-3,4-dihydro-1H-benzo[4,5]imidazo[2,1-c][1,4]oxazin-7-yl)pyrimidin-2-yl)piperidin-4-ol], the negative-log IC50 (pIC50) was more than 6.00.
On to `COc1ccccc1C1(O)CCCc2nc3ccc(-c4cnc(N5CCOCC5)nc4)cn3c21` (centres unmarked) [Example 5, 9-(2-Methoxyphenyl)-2-(2-morpholinopyrimidin-5-yl)-6,7,8,9-tetrahydrobenzo[4,5]imidazo[1,2-a]pyridin-9-ol], for which the pIC50 was 5.00 to 6.00.
For the molecule `c1ccc(C2CCc3nc4ccc(-c5cnc(N6CCOCC6)nc5)nc4n32)cc1` (centres unmarked) [Example 6, 4-(5-(8-Phenyl-7,8-dihydro-6H-pyrrolo[2′,1′:2,3]imidazo[4,5-b]pyridin-2-yl)pyrimidin-2-yl)morpholine], the negative logarithm of the IC50 (pIC50) was more than 6.00.
In the case of `CCOC(=O)CNc1ncc(-c2ccc3nc4c(n3c2)C(c2ccccc2OC)CCC4)cn1` (centres unmarked) [Example 7, Ethyl 2-[[5-[9-(2-methoxyphenyl)-6,7,8,9-tetrahydropyrido[1,2-a]benzimidazol-2-yl]pyrimidin-2-yl]amino]acetate] it was more than 6.00.
In the case of `COc1ccccc1C1CCCc2nc3ccc(-c4cnc(NCC(=O)O)nc4)cn3c21` (centres unmarked) [Example 8, 2-((5-(9-(2-methoxyphenyl)-6,7,8,9-tetrahydrobenzo[4,5]imidazo[1,2-a]pyridin-2-yl)pyrimidin-2-yl)amino)acetic acid] it was 5.00 to 6.00.
In the case of `O=C1NCC2CN(c3ncc(-c4ccc5nc6n(c5c4)[C@@H](c4ccccc4)COC6)cn3)CCN12` (stereo partly drawn) [Example 9, 7-(5-((S)-4-Phenyl-3,4-dihydro-1H-benzo[4,5]imidazo[2,1-c][1,4]oxazin-7-yl)pyrimidin-2-yl)hexahydroimidazo[1,5-a]pyrazin-3(2H)-one] it was more than 6.00; in that of `COc1ccccc1C1CCc2nc3ccc(-c4cnc(C(C)(C)O)nc4)cn3c21` (centres unmarked) [Example 10, 2-(5-(1-(2-Methoxyphenyl)-2,3-dihydro-1H-cyclopenenta[4,5]imidazo[1,2-a]pyridin-7-yl)pyrimidin-2-yl)propan-2-ol], more than 6.00.
Regarding `COc1ccccc1[C@@H]1CCc2nc3ccc(-c4cnc(C(C)(C)O)nc4)cn3c21` [Example 11, (S)-2-(5-(1-(2-Methoxyphenyl)-2,3-dihydro-1H-cyclopenta[4,5]imidazo[1,2-a]pyridin-7-yl)pyrimidin-2-yl)propan-2-ol], the pIC50 is 4.00 to 5.00.
In the case of `COc1ccccc1[C@H]1CCc2nc3ccc(-c4cnc(C(C)(C)O)nc4)cn3c21` [Example 12, (R)-2-(5-(1-(2-methoxyphenyl)-2,3-dihydro-1H-cyclopenta[4,5]imidazo[1,2-a]pyridin-7-yl)pyrimidin-2-yl)propan-2-ol] it was more than 6.00; in that of `CC(C)(O)c1ncc(-c2ccc3nc4n(c3c2)[C@@H](c2ccccc2OC(F)F)COC4)cn1` [Example 13, (S)-2-(5-(4-(2-(Difluoromethoxy)phenyl)-3,4-dihydro-1H-benzo[4,5]imidazo[2,1-c][1,4]oxazin-7-yl)pyrimidin-2-yl)propan-2-ol], more than 6.00; in that of `COc1ccccc1C1=CCCc2nc3ccc(-c4cnc(N5CCOCC5)nc4)cn3c21` [Example 14, 4-(5-(9-(2-Methoxyphenyl)-6,7-dihydrobenzo[4,5]imidazo[1,2-a]pyridin-2-yl)pyrimidin-2-yl)morpholine], 4.00 to 5.00.
For the molecule `COc1ccccc1C1CCCc2nc3ccc(-c4cnc(N5CCOCC5)nc4)cn3c21` (centres unmarked) [Example 15, 4-(5-(9-(2-Methoxyphenyl)-6,7,8,9-tetrahydrobenzo[4,5]imidazo[1,2-a]pyridin-2-yl)pyrimidin-2-yl)morpholine], the pIC50 was more than 6.00.
For the molecule `COc1ccccc1C1CCCc2nc3ccc(-c4cnc(C(C)(C)O)nc4)cn3c21` (centres unmarked) [Example 16, 2-(5-(9-(2-Methoxyphenyl)-6,7,8,9-tetrahydrobenzo[4,5]imidazo[1,2-a]pyridin-2-yl)pyrimidin-2-yl)propan-2-ol], the negative-log IC50 (pIC50) is more than 6.00.
For the molecule `CC(C)(O)c1ncc(-c2ccc3nc4n(c3c2)C(C2CCCCC2)CC4)cn1` (centres unmarked) [Example 17, 2-(5-(1-Cyclohexyl-2,3-dihydro-H-benzo[d]pyrrolo[1,2-a]imidazol-7-yl)pyrimidin-2-yl)propan-2-ol], the pIC50 was more than 6.00.
Turning to `c1ccc(C2CCc3nc4ccc(N5CCN(c6ncccn6)CC5)nc4n32)cc1` (centres unmarked) [Example 18, 8-Phenyl-2-(4-(pyrimidin-2-yl)piperazin-1-yl)-7,8-dihydro-6H-pyrrolo[2′,1′:2,3]imidazo[4,5-b]pyridine], the pIC50 was 5.00 to 6.00.
Regarding `c1ccc(C2COCc3nc4ccc(-c5cnc(N6CCOCC6)nc5)cc4n32)cc1` (centres unmarked) [Example 19, 7-(2-Morpholinopyrimidin-5-yl)-4-phenyl-3,4-dihydro-H-benzo[4,5]imidazo[2,1-c][1,4]oxazine], the pIC50 was more than 6.00.
Take `c1ccc([C@@H]2COCc3nc4ccc(-c5cnc(N6CCOCC6)nc5)cc4n32)cc1` [Example 20, (R)-7-(2-Morpholinopyrimidin-5-yl)-4-phenyl-3,4-dihydro-1H-benzo[4,5]imidazo[2,1-c][1,4]oxazine]: the negative logarithm of the IC50 (pIC50) is 4.00 to 5.00.
`O=C(O)C1CCN(c2ncc(-c3ccc4nc5n(c4c3)C(c3ccccc3)COC5)cn2)CC1` (centres unmarked) [Example 22, 1-(5-(4-Phenyl-3,4-dihydro-1H-benzo[4,5]imidazo[2,1-c][1,4]oxazin-7-yl)pyrimidin-2-yl)piperidine-4-carboxylic acid]: the pIC50 is 5.00 to 6.00.
For the molecule `COc1ccccc1C1CCCc2nc3ccc(-c4ccc(C(=O)O)s4)cn3c21` (centres unmarked) [Example 23, 5-(9-(2-Methoxyphenyl)-6,7,8,9-tetrahydrobenzo[4,5]imidazo[1,2-a]pyridin-2-yl)thiophene-2-carboxylic acid], the negative-log IC50 (pIC50) was 5.00 to 6.00.
Next, `O=C1NC[C@@H]2CN(c3ncc(-c4ccc5nc6n(c5c4)[C@@H](c4ccccc4)CC6)cn3)CCN12` [Example 24, (R)-7-(5-((R)-1-Phenyl-2,3-dihydro-1H-benzo[d]pyrrolo[1,2-a]imidazol-7-yl)pyrimidin-2-yl)hexahydroimidazo[1,5-a]pyrazin-3(2H)-one]: more than 6.00; `O=C1NC[C@H]2CN(c3ncc(-c4ccc5nc6n(c5c4)[C@@H](c4ccccc4)CC6)cn3)CCN12` [Example 25, (S)-7-(5-((R)-1-Phenyl-2,3-dihydro-1H-benzo[d]pyrrolo[1,2-a]imidazol-7-yl)pyrimidin-2-yl)hexahydroimidazo[1,5-a]pyrazin-3(2H)-one]: more than 6.00; `O=C1NC[C@@H]2CN(c3ncc(-c4ccc5nc6n(c5c4)[C@@H](c4ccccc4)COC6)cn3)CCN12` [Example 26, (R)-7-(5-((S)-4-Phenyl-3,4-dihydro-1H-benzo[4,5]imidazo[2,1-c][1,4]oxazin-7-yl)pyrimidin-2-yl)hexahydroimidazo[1,5-a]pyrazin-3(2H)-one]: more than 6.00.
In the case of `O=C1NC[C@H]2CN(c3ncc(-c4ccc5nc6n(c5c4)[C@@H](c4ccccc4)COC6)cn3)CCN12` [Example 27, (S)-7-(5-((S)-4-Phenyl-3,4-dihydro-1H-benzo[4,5]imidazo[2,1-c][1,4]oxazin-7-yl)pyrimidin-2-yl)hexahydroimidazo[1,5-a]pyrazin-3(2)-one] it was more than 6.00; in that of `CC(C)(O)c1ncc(-c2ccc3nc4n(c3c2)C(c2ccccn2)CC4)cn1` (centres unmarked) [Example 28, 2-(5-(1-(Pyridin-2-yl)-2,3-dihydro-1H-benzo[d]pyrrolo[1,2-a]imidazol-7-yl)pyrimidin-2-yl)propan-2-ol], 5.00 to 6.00.
